Measured values: patent US20230085307A1, “PYRIDAZINONE COMPOUND AND HERBICIDE” (NISSAN CHEMICAL CORPORATION, priority 2019, published 2023)

What was measured:
velvetleaf [1] = test: Test Example 4: herbicidal effect by soil treatment (Table 19, symbol M); type: in vivo, velvetleaf (Abutilon theophrasti); conditions: amount of applied herbicide 320 g/ha
Summary of the method: (§1)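 In this soil treatment, the formulated compound reached the seeds only through the soil: seeds were buried about 1.5 cm deep in sterilized diluvial soil, then the diluted emulsion was sprayed over the surface. After three weeks at 25° C. to 30° C. in a greenhouse, effects were graded on criteria from an earlier test.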

green foxtail [2] = test: Test Example 5: herbicidal effect by foliage application, plastic box (Table 20, symbol G); type: in vivo, green foxtail (Setaria viridis); conditions: amount of applied herbicide 320 g/ha; foliage application after 14-day growth; evaluated three weeks after application
Summary of the method: (§2)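 Plants were sown into sterilized diluvial soil under about 1.5 cm cover and kept in a greenhouse at 25° C. to 30° C. Fourteen days on, foliage received an even spray of the diluted emulsion. Herbicidal or crop effect was judged three weeks afterwards.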

lambsquarters [3] = test: Test Example 4: herbicidal effect by soil treatment (Table 19, symbol O); type: in vivo, lambsquarters (Chenopodium album); conditions: amount of applied herbicide 320 g/ha
Summary of the method: as §1

Chinese sprangletop = test: Test Example 3: herbicidal effect by foliage application, Wagner pot (Table 18, symbol D); type: in vivo, chinese sprangletop (Leptochloa chinensis); conditions: 320 g/ha
Summary of the method: (§3)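 Plants were sown in alluvial soil held under 0.1–0.5 cm standing water and grown 14 days in a greenhouse at 25–30 °C. An emulsifiable formulation, water-diluted to the set dose, was then sprayed onto the foliage, and effects were scored three weeks later using previously defined criteria.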

green foxtail [4] = test: Test Example 4: herbicidal effect by soil treatment (Table 19, symbol G); type: in vivo, green foxtail (Setaria viridis); conditions: amount of applied herbicide 320 g/ha
Summary of the method: as §1

barnyard grass [5] = test: Test Example 3: herbicidal effect by foliage application, Wagner pot (Table 18, symbol H); type: in vivo, barnyard grass (Echinochloa crus-galli); conditions: 320 g/ha
Summary of the method: as §3

wild oat [6] = test: Test Example 4: herbicidal effect by soil treatment (Table 19, symbol I); type: in vivo, wild oat (Avena fatua); conditions: amount of applied herbicide 320 g/ha
Summary of the method: as §1

persian speedwell [7] = test: Test Example 4: herbicidal effect by soil treatment (Table 19, symbol R); type: in vivo, Persian speedwell (Veronica persica); conditions: amount of applied herbicide 320 g/ha
Summary of the method: as §1

southern crabgrass [8] = test: Test Example 5: herbicidal effect by foliage application, plastic box (Table 20, symbol F); type: in vivo, southern crabgrass (Digitaria ciliaris); conditions: amount of applied herbicide 320 g/ha; foliage application after 14-day growth; evaluated three weeks after application
Summary of the method: as §2

barnyard grass [9] = test: Test Example 4: herbicidal effect by soil treatment (Table 19, symbol H); type: in vivo, barnyard grass (Echinochloa crus-galli); conditions: amount of applied herbicide 320 g/ha
Summary of the method: as §1

southern crabgrass [10] = test: Test Example 4: herbicidal effect by soil treatment (Table 19, symbol F); type: in vivo, southern crabgrass (Digitaria ciliaris); conditions: amount of applied herbicide 320 g/ha
Summary of the method: as §1

redroot pigweed [11] = test: Test Example 5: herbicidal effect by foliage application, plastic box (Table 20, symbol N); type: in vivo, redroot pigweed (Amaranthus retroflexus); conditions: amount of applied herbicide 320 g/ha; foliage application after 14-day growth; evaluated three weeks after application
Summary of the method: as §2

blackgrass [12] = test: Test Example 4: herbicidal effect by soil treatment (Table 19, symbol J); type: in vivo, blackgrass (Alopecurus myosuroides); conditions: amount of applied herbicide 320 g/ha
Summary of the method: as §1

barnyard grass [13] = test: Test Example 5: herbicidal effect by foliage application, plastic box (Table 20, symbol H); type: in vivo, barnyard grass (Echinochloa crus-galli); conditions: amount of applied herbicide 320 g/ha; foliage application after 14-day growth; evaluated three weeks after application
Summary of the method: as §2

redroot pigweed [14] = test: Test Example 4: herbicidal effect by soil treatment (Table 19, symbol N); type: in vivo, redroot pigweed (Amaranthus retroflexus); conditions: amount of applied herbicide 320 g/ha
Summary of the method: as §1

persian speedwell [15] = test: Test Example 5: herbicidal effect by foliage application, plastic box (Table 20, symbol R); type: in vivo, Persian speedwell (Veronica persica); conditions: amount of applied herbicide 320 g/ha; foliage application after 14-day growth; evaluated three weeks after application
Summary of the method: as §2

windgrass [16] = test: Test Example 5: herbicidal effect by foliage application, plastic box (Table 20, symbol L); type: in vivo, windgrass (Apera spica-venti); conditions: amount of applied herbicide 320 g/ha; foliage application after 14-day growth; evaluated three weeks after application
Summary of the method: as §2

wild oat [17] = test: Test Example 5: herbicidal effect by foliage application, plastic box (Table 20, symbol I); type: in vivo, wild oat (Avena fatua); conditions: amount of applied herbicide 320 g/ha; foliage application after 14-day growth; evaluated three weeks after application
Summary of the method: as §2

chickweed [18] = test: Test Example 4: herbicidal effect by soil treatment (Table 19, symbol P); type: in vivo, common chickweed (Stellaria media); conditions: amount of applied herbicide 320 g/ha
Summary of the method: as §1

lambsquarters [19] = test: Test Example 5: herbicidal effect by foliage application, plastic box (Table 20, symbol O); type: in vivo, lambsquarters (Chenopodium album); conditions: amount of applied herbicide 320 g/ha; foliage application after 14-day growth; evaluated three weeks after application
Summary of the method: as §2

windgrass [20] = test: Test Example 4: herbicidal effect by soil treatment (Table 19, symbol L); type: in vivo, windgrass (Apera spica-venti); conditions: amount of applied herbicide 320 g/ha
Summary of the method: as §1

velvetleaf [21] = test: Test Example 5: herbicidal effect by foliage application, plastic box (Table 20, symbol M); type: in vivo, velvetleaf (Abutilon theophrasti); conditions: amount of applied herbicide 320 g/ha; foliage application after 14-day growth; evaluated three weeks after application
Summary of the method: as §2

Italian ryegrass [22] = test: Test Example 5: herbicidal effect by foliage application, plastic box (Table 20, symbol K); type: in vivo, Italian ryegrass (Lolium multiflorum); conditions: amount of applied herbicide 320 g/ha; foliage application after 14-day growth; evaluated three weeks after application
Summary of the method: as §2

chickweed [23] = test: Test Example 5: herbicidal effect by foliage application, plastic box (Table 20, symbol P); type: in vivo, common chickweed (Stellaria media); conditions: amount of applied herbicide 320 g/ha; foliage application after 14-day growth; evaluated three weeks after application
Summary of the method: as §2

rice flat sedge = test: Test Example 3: herbicidal effect by foliage application, Wagner pot (Table 18, symbol E); type: in vivo, rice flat sedge (Cyperus iria); conditions: 320 g/ha
Summary of the method: as §3

blackgrass [24] = test: Test Example 5: herbicidal effect by foliage application, plastic box (Table 20, symbol J); type: in vivo, blackgrass (Alopecurus myosuroides); conditions: amount of applied herbicide 320 g/ha; foliage application after 14-day growth; evaluated three weeks after application
Summary of the method: as §2

Italian ryegrass [25] = test: Test Example 4: herbicidal effect by soil treatment (Table 19, symbol K); type: in vivo, Italian ryegrass (Lolium multiflorum); conditions: amount of applied herbicide 320 g/ha
Summary of the method: as §1

## CCCC(=O)Oc1c(C)nn(C)c(=O)c1-c1c(-c2ccccc2OC)sc2cc(Cl)c(Cl)cc12 [5-042]
Velvetleaf [1]
  M: velvetleaf, herbicidal effect grade: 0 (Herbicidal rate of 5% or less (almost no effect))
Green foxtail [2]
  Herbicidal effect by foliage application, G: green foxtail: 4 (Herbicidal rate of 70% or more and less than 90%)
Lambsquarters [3]
  O: lambsquarters, herbicidal effect grade: 1 (Herbicidal rate of 5% or more and less than 20%)
Chinese sprangletop
  herbicidal effect on Chinese sprangletop (D): 2 (Herbicidal rate of 20% or more and less than 40%)
Green foxtail [4]
  G: green foxtail, herbicidal effect grade: 0 (Herbicidal rate of 5% or less (almost no effect))
Barnyard grass [5]
  herbicidal effect on barnyard grass (H): 5 (Herbicidal rate of 90% or more (almost completely withered))
Wild oat [6]
  I: wild oat, herbicidal effect grade: 0 (Herbicidal rate of 5% or less (almost no effect))
Persian speedwell [7]
  R: persian speedwell, herbicidal effect grade: 0 (Herbicidal rate of 5% or less (almost no effect))
Southern crabgrass [8]
  Herbicidal effect by foliage application, F: southern crabgrass: 0 (Herbicidal rate of 5% or less (almost no effect))
Barnyard grass [9]
  H: barnyard grass, herbicidal effect grade: 0 (Herbicidal rate of 5% or less (almost no effect))
Southern crabgrass [10]
  F: southern crabgrass, herbicidal effect grade: 0 (Herbicidal rate of 5% or less (almost no effect))
Redroot pigweed [11]
  Herbicidal effect by foliage application, N: redroot pigweed: 4 (Herbicidal rate of 70% or more and less than 90%)
Blackgrass [12]
  J: blackgrass, herbicidal effect grade: 0 (Herbicidal rate of 5% or less (almost no effect))
Barnyard grass [13]
  Herbicidal effect by foliage application, H: barnyard grass: 4 (Herbicidal rate of 70% or more and less than 90%)
Redroot pigweed [14]
  N: redroot pigweed, herbicidal effect grade: 3 (Herbicidal rate of 40% or more and less than 70%)
Persian speedwell [15]
  Herbicidal effect by foliage application, R: persian speedwell: 4 (Herbicidal rate of 70% or more and less than 90%)
Windgrass [16]
  Herbicidal effect by foliage application, L: windgrass: 0 (Herbicidal rate of 5% or less (almost no effect))
Wild oat [17]
  Herbicidal effect by foliage application, I: wild oat: 0 (Herbicidal rate of 5% or less (almost no effect))
Chickweed [18]
  P: chickweed, herbicidal effect grade: 3 (Herbicidal rate of 40% or more and less than 70%)
Lambsquarters [19]
  Herbicidal effect by foliage application, O: lambsquarters: 5 (Herbicidal rate of 90% or more (almost completely withered))
Windgrass [20]
  L: windgrass, herbicidal effect grade: 0 (Herbicidal rate of 5% or less (almost no effect))
Velvetleaf [21]
  Herbicidal effect by foliage application, M: velvetleaf: 5 (Herbicidal rate of 90% or more (almost completely withered))
Italian ryegrass [22]
  Herbicidal effect by foliage application, K: Italian ryegrass: 0 (Herbicidal rate of 5% or less (almost no effect))
Chickweed [23]
  Herbicidal effect by foliage application, P: chickweed: 4 (Herbicidal rate of 70% or more and less than 90%)
Rice flat sedge
  herbicidal effect on rice flat sedge (E): 4 (Herbicidal rate of 70% or more and less than 90%)
Blackgrass [24]
  Herbicidal effect by foliage application, J: blackgrass: 0 (Herbicidal rate of 5% or less (almost no effect))
Italian ryegrass [25]
  K: Italian ryegrass, herbicidal effect grade: 0 (Herbicidal rate of 5% or less (almost no effect))
